{"source": "patent US12528840B2", "about": "“Transcription active complex targeting cancer drug from viral protein sequence” (The Regents of the University of California, priority 2020, dated 2026)", "format_in_all_cases": "cell-based", "key": {"PEL cells": {"test_system": "PEL cells", "test": "PEL cell killing by delivered peptide (MTS live-cell assay)", "settings": "peptide delivered into PEL, a MYC-dependent cancer", "method": "FIGS. 1A-H. Viral protein sequence based cancer drug. (FIG. 1A) Discovery of hijacking transcription machinery in KSHV reactivating cells (Chen et al., J. Virol 2017). […] (FIG. 1B) Reporter assay. KSHV ORF50 overexpression inhibits MYC activation. (FIG. 1C) Chromatin immunoprecipitation with Mass Spectrometry. Proteins inducibly interact with both ORF50 and RNA polII are shown. […] (FIG. 1E) Mapping of interacting domain. GST-pull down was performed to identify NCoA2 binding domains. Purified NCoA2 was made from recombinant baculovirus infected cells and KSHV ORF50 deletion proteins were made in E. coli. Peptides are then generated as TAT-fusion for cell penetration. (FIG. 1F) ChIP-seq and RNA-seq. ChIP-seq was performed to identify NCOA2 target genes in primary effusion lymphoma cells. NCoA2 localization is highly associated with active genes and localizes with RNA pol II at enhancer regions. […] The qRT-PCR was performed with specific primers. (FIG. 1H) Gene set enrichment analyses (GSEA). RNA sequencing was performed with peptide-treated PEL cells. […] (FIG. 1I) The peptide drug. Wt peptide or mutant peptide was incubated in culture media. Forty-eight hours later, live cells were measured by applying MTS. Cell viability was compared with no-treated samples. No treated sample was set as 1."}, "B cells": {"test_system": "B cells", "test": "B cell expansion in U-bottom plate upon sCD40L or ODN 2006 stimulation", "settings": "32 μM", "method": "B cells were prepared by magnetic beads from healthy donor PBMC (n=2). Representative pictures of B cell culture in a 96 well U-bottom plate in the presence of sCD40L (T cell dependent stimulation) or ODN 2006 (TLR9 ligand)(T cell independent stimulation) at indicated concentration without or with MBK50 (16, 32 μM) or mutant peptide (32 μM). The radius of cell volume in each well roughly correlate to the total cell numbers."}, "THP-1": {"test_system": "THP-1", "test": "MTT assay, THP-1", "settings": "THP-1 monocytic leukemia cell line", "method": "FIG. 6. Viral and cellular responses to K-Rta peptide; identification of VGN50. (a) Protein sequence alignment. FIG. 6(A) The effect of VGN50 on various cancer cell types. MTT assays were performed with the indicated cell lines treated with various VGN50 concentrations. The O.D. of mock-treated samples were set as 100%, and O.D. from detergent treated cells were set as 0%. Percentage viability+/−SD was calculated for each treatment (N=3 samples/treatment). FIG. 6(B) Viability assay with flow cytometry. Cell viability was measured in triplicate with live/dead staining and the cell killing effects on cancer cells was compared with normal peripheral blood mononuclear cells (PBMC) from three healthy donors. Results are presented as percentage viability+/−SD deviation (N=3 samples/group).\nAs shown in FIG. 6(a), multiple cancer cell lines were used for MTT assay to evaluate cancer cell killing efficacies of the MBK50 peptide at different concentrations (cell variability studies). […] Importantly, human peripheral blood mononuclear cells (PBMCs) from healthy donors were approximately 10-fold less sensitive to MBK-mediated killing compared to myeloid and lymphoid cancer cell lines (e.g., THP-1 and BCBL-1) as assessed by flow cytometry after live/dead staining (FIG. 6(b)). […]"}, "BC-1 cells": {"test_system": "BC-1 cells", "test": "SLAM-seq, active transcription of cellular genes", "settings": "24 μM, 30 min then 4sU 1 hour, BC-1 (FIG. 9: BCBL-1 and BC1)", "method": "(§1) FIG. 9. Profiling Peptide targets with Thiol(SH)-linked alkylation for the metabolic sequencing of RNA (SLAM seq). Differences in active transcription in presence of peptide drug was examined. […] Total RNA-sequence performed 24 hours after drug incubation.\n(§2) Thiol(SH)-linked alkylation for the metabolic sequencing of RNA (SLAM seq), an orthogonal-chemistry-based RNA sequencing technology detects 4-thiouridine (s4U) incorporation in RNA species at single-nucleotide resolution. Using SLAM-seq method, BC-1 cells were incubated with peptide drug and peptide with three amino acid substitute to alanine was used as a control peptide. Peptide drug was incubated in BC-1 cell culture (24 μM) and after 30 min drug incubation, 4sU (300 μM in final concentration) was added into culture media for 1 hour. Total RNA was isolated in the end of 1 hour 4sU incubation and alkylated RNA samples were subjected to SLAM-seq. Samples were duplicated and changed gene expression vs mock-treated cells (P<0.05) was marked in red. […] IGV viewer was used to visualize sequence reads at MYC region (Chr. 8). […] Log 2 fold changes and adjusted P-value of MYC down regulation in both BCBL-1 and BC-1 cells are depicted in underneath of panel."}, "MYC": {"test_system": "MYC", "test": "SLAM-seq, MYC transcription", "settings": "24 μM, 30 min then 4sU 1 hour", "method": "as §1, §2"}, "MYC target genes": {"test_system": "MYC target genes", "test": "Total RNA sequencing with Gene Set Enrichment Analyses", "settings": "total RNA-sequence 24 hours post-drug treatment, PEL cells", "method": "FIGS. 1A-H. Viral protein sequence based cancer drug. (FIG. 1A) Discovery of hijacking transcription machinery in KSHV reactivating cells (Chen et al., J. Virol 2017). […] (FIG. 1B) Reporter assay. KSHV ORF50 overexpression inhibits MYC activation. (FIG. 1C) Chromatin immunoprecipitation with Mass Spectrometry. Proteins inducibly interact with both ORF50 and RNA polII are shown. […] (FIG. 1E) Mapping of interacting domain. GST-pull down was performed to identify NCoA2 binding domains. Purified NCoA2 was made from recombinant baculovirus infected cells and KSHV ORF50 deletion proteins were made in E. coli. Peptides are then generated as TAT-fusion for cell penetration. (FIG. 1F) ChIP-seq and RNA-seq. ChIP-seq was performed to identify NCOA2 target genes in primary effusion lymphoma cells. NCoA2 localization is highly associated with active genes and localizes with RNA pol II at enhancer regions. […] The qRT-PCR was performed with specific primers. (FIG. 1H) Gene set enrichment analyses (GSEA). […] Forty-eight hours later, live cells were measured by applying MTS. […]\nThiol(SH)-linked alkylation for the metabolic sequencing of RNA (SLAM seq), an orthogonal-chemistry-based RNA sequencing technology detects 4-thiouridine (s4U) incorporation in RNA species at single-nucleotide resolution. […] IGV viewer was used to visualize sequence reads at MYC region (Chr. 8). […]"}, "[1]": {"test_system": "Kaposi's sarcoma-associated herpesvirus (KSHV)", "test": "Total RNA-sequencing of peptide-resistant KSHV-infected B-cells", "settings": "continued peptide incubation, resistant cells vs parental cells", "method": "FIG. 10. Peptide long-term treatment changes B-cell phenotype. RNA-seq was performed after generating peptide-drug resistant cell population.\nThe peptide sequence is based on KSHV transactivator protein sequence, and it is expected that the peptide will compete with viral transactivator protein for recruitment of cellular transactivation complex. We continued to incubate with peptide drug in KSHV-naturally infected B-cells and generated resistant cell line (RC). The resistant cells were then used to identify putative drug targets by comparing parental cells with total RNA-sequencing."}}}
{"sequence": "LSSILQGLYQLDT [MBK50]", "values": [{"measurement": "killing of PEL cancer cells", "setting": "PEL cells", "result": "killed the cancer cells"}, {"measurement": "cell volume in well (correlates to total cell numbers)", "setting": "B cells; donor #46", "result": "significantly reduced"}, {"measurement": "cell volume in well (correlates to total cell numbers)", "setting": "B cells; donor #47", "result": "less so"}, {"measurement": "sensitivity to cell killing", "setting": "THP-1", "result": "sensitive"}, {"measurement": "cellular gene expression (active transcription)", "setting": "BC-1 cells; listed as Wt-peptide", "result": "inhibited multiple cellular gene expression"}, {"measurement": "cellular gene expression (active transcription)", "setting": "BC-1 cells; listed as peptide drug", "result": "strongly inhibited active transcription"}, {"measurement": "MYC transcript species containing T→C mutation (Myc transcription)", "setting": "MYC", "result": "significantly decreased"}, {"measurement": "MYC transcript species containing T→C mutation (Myc transcription)", "setting": "MYC; listed as peptide drug", "result": "strongly down-regulated"}, {"measurement": "GSEA of MYC target genes", "setting": "MYC target genes", "result": "highest enrichment scores with zero false discovery rate"}, {"measurement": "GSEA of MYC target genes", "setting": "MYC target genes; listed as Wt-peptide", "result": "enrichment of MYC-target gene down-regulation"}, {"measurement": "latently infected KSHV gene expression", "setting": "[1]", "result": "significantly down-regulated"}]}
